# Assay results from publication PMC9817970 (Cancers, 2022).
# How the values were obtained:
# Experiment in all cases: Kinase panel profiling
# Assay type in all cases: biochemical
# Settings in all cases: 10 μM ATP
# AKT3 = molecular target: T1, AKT3 (Homo sapiens, UniProt Q9Y243)
# T1 construct: purchased Reaction Biology Corp
# Experimental: (§1) Kinase panel profiling was conducted by Reaction Biology Corp. (San Diego, CA, USA). A single dose (1.0 μM) of 6r was tested against 371 recombinant human kinases in the presence of 10 μM ATP.
# ASK1/MAP3K5 = molecular target: T2, ASK1/MAP3K5 (Homo sapiens, UniProt Q99683)
# T2 construct: purchased Reaction Biology Corp
# Experimental: as §1
# BRAF = molecular target: T3, BRAF (Homo sapiens, UniProt P15056)
# T3 construct: purchased Reaction Biology Corp
# Experimental: as §1
# BRK = molecular target: T4, BRK (Homo sapiens, UniProt Q13882)
# T4 construct: purchased Reaction Biology Corp
# Experimental: as §1
# CAMK2a = molecular target: T5, CAMK2a (Homo sapiens, UniProt Q9UQM7)
# T5 construct: purchased Reaction Biology Corp
# Experimental: as §1
# CAMK2b = molecular target: T6, CAMK2b (Homo sapiens, UniProt Q13554)
# T6 construct: purchased Reaction Biology Corp
# Experimental: as §1
# CK1G3 = molecular target: T7, CK1G3 (Homo sapiens, UniProt Q9Y6M4)
# T7 construct: purchased Reaction Biology Corp
# Experimental: as §1
# CK1g1 = molecular target: T8, CK1g1 (Homo sapiens, UniProt Q9HCP0)
# T8 construct: purchased Reaction Biology Corp
# Experimental: as §1
# DYRK1/DYRK1A = molecular target: T9, DYRK1/DYRK1A (Homo sapiens, UniProt Q13627)
# T9 construct: purchased Reaction Biology Corp
# Experimental: as §1
# ERBB4/HER4 = molecular target: T10, ERBB4/HER4 (Homo sapiens, UniProt Q15303)
# T10 construct: purchased Reaction Biology Corp
# Experimental: as §1
# FAK/PTK2 = molecular target: T11, FAK/PTK2 (Homo sapiens, UniProt Q05397)
# T11 construct: purchased Reaction Biology Corp
# Experimental: as §1
# FES/FPS = molecular target: T12, FES/FPS (Homo sapiens, UniProt P07332)
# T12 construct: purchased Reaction Biology Corp
# Experimental: as §1
# FYN = molecular target: T13, FYN (Homo sapiens, UniProt P06241)
# T13 construct: purchased Reaction Biology Corp
# Experimental: as §1
# IRR/INSRR = molecular target: T14, IRR/INSRR (Homo sapiens, UniProt P14616)
# T14 construct: purchased Reaction Biology Corp
# Experimental: as §1
# JAK2 = molecular target: T15, JAK2 (Homo sapiens, UniProt O60674)
# T15 construct: purchased Reaction Biology Corp
# Experimental: as §1
# MKK7 = molecular target: T16, MKK7 (Homo sapiens, UniProt O14733)
# T16 construct: purchased Reaction Biology Corp
# Experimental: as §1
# MSK1/RPS6KA5 = molecular target: T17, MSK1/RPS6KA5 (Homo sapiens, UniProt O75582)
# T17 construct: purchased Reaction Biology Corp
# Experimental: as §1
# NEK3 = molecular target: T18, NEK3 (Homo sapiens, UniProt P51956)
# T18 construct: purchased Reaction Biology Corp
# Experimental: as §1
# NEK6 = molecular target: T19, NEK6 (Homo sapiens, UniProt Q9HC98)
# T19 construct: purchased Reaction Biology Corp
# Experimental: as §1
# P38b/MAPK11 = molecular target: T20, P38b/MAPK11 (Homo sapiens, UniProt Q15759)
# T20 construct: purchased Reaction Biology Corp
# Experimental: as §1
# PASK = molecular target: T21, PASK (Homo sapiens, UniProt Q96RG2)
# T21 construct: purchased Reaction Biology Corp
# Experimental: as §1
# PKAcb = molecular target: T22, PKAcb (Homo sapiens, UniProt P22694)
# T22 construct: purchased Reaction Biology Corp
# Experimental: as §1
# PKAcg = molecular target: T23, PKAcg (Homo sapiens, UniProt P22612)
# T23 construct: purchased Reaction Biology Corp
# Experimental: as §1
# PKCmu/PRKD1 = molecular target: T24, PKCmu/PRKD1 (Homo sapiens, UniProt Q15139)
# T24 construct: purchased Reaction Biology Corp
# Experimental: as §1
# PKG2/PRKG2 = molecular target: T25, PKG2/PRKG2 (Homo sapiens, UniProt Q13237)
# T25 construct: purchased Reaction Biology Corp
# Experimental: as §1
# PKMYT1 = molecular target: T26, PKMYT1 (Homo sapiens, UniProt Q99640)
# T26 construct: purchased Reaction Biology Corp
# Experimental: as §1
# PLK3 = molecular target: T27, PLK3 (Homo sapiens, UniProt Q9H4B4)
# T27 construct: purchased Reaction Biology Corp
# Experimental: as §1
# RSK3 = molecular target: T28, RSK3 (Homo sapiens, UniProt Q15349)
# T28 construct: purchased Reaction Biology Corp
# Experimental: as §1
# SIK3 = molecular target: T29, SIK3 (Homo sapiens, UniProt Q9Y2K2)
# T29 construct: purchased Reaction Biology Corp
# Experimental: as §1
# STK21/CIT = molecular target: T30, STK21/CIT (Homo sapiens, UniProt O14578)
# T30 construct: purchased Reaction Biology Corp
# Experimental: as §1
# TGFBR2 = molecular target: T31, TGFBR2 (Homo sapiens, UniProt P37173)
# T31 construct: purchased Reaction Biology Corp
# Experimental: as §1
# TIE2/TEK = molecular target: T32, TIE2/TEK (Homo sapiens, UniProt Q02763)
# T32 construct: purchased Reaction Biology Corp
# Experimental: as §1
# TLK2 = molecular target: T33, TLK2 (Homo sapiens, UniProt Q86UE8)
# T33 construct: purchased Reaction Biology Corp
# Experimental: as §1
# TYK1/LTK = molecular target: T34, TYK1/LTK (Homo sapiens, UniProt P29376)
# T34 construct: purchased Reaction Biology Corp
# Experimental: as §1
# TYK2 = molecular target: T35, TYK2 (Homo sapiens, UniProt P29597)
# T35 construct: purchased Reaction Biology Corp
# Experimental: as §1
# ULK2 = molecular target: T36, ULK2 (Homo sapiens, UniProt Q8IYT8)
# T36 construct: purchased Reaction Biology Corp
# Experimental: as §1
# WNK2 = molecular target: T37, WNK2 (Homo sapiens, UniProt Q9Y3S1)
# T37 construct: purchased Reaction Biology Corp
# Experimental: as §1
# YES/YES1 = molecular target: T38, YES/YES1 (Homo sapiens, UniProt P07947)
# T38 construct: purchased Reaction Biology Corp
# Experimental: as §1
# ZAK/MLTK = molecular target: T39, ZAK/MLTK (Homo sapiens, UniProt Q9NYL2)
# T39 construct: purchased Reaction Biology Corp
# Experimental: as §1
# T13 sequence (P06241 whole entry): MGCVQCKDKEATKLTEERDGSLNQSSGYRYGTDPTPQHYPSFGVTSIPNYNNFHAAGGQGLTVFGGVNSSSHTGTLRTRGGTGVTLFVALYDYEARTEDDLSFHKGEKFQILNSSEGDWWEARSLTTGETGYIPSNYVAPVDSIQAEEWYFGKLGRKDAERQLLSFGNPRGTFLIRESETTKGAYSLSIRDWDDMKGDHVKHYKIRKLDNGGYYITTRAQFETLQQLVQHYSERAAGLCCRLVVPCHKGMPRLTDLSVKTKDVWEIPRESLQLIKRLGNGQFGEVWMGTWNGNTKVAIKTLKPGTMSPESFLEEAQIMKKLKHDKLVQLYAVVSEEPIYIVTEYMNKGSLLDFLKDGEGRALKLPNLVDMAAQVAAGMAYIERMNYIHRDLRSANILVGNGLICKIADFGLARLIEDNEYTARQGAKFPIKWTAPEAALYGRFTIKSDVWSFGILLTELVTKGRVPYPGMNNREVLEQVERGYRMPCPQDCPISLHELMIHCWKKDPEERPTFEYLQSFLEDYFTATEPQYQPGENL
# T8 sequence (Q9HCP0 whole entry): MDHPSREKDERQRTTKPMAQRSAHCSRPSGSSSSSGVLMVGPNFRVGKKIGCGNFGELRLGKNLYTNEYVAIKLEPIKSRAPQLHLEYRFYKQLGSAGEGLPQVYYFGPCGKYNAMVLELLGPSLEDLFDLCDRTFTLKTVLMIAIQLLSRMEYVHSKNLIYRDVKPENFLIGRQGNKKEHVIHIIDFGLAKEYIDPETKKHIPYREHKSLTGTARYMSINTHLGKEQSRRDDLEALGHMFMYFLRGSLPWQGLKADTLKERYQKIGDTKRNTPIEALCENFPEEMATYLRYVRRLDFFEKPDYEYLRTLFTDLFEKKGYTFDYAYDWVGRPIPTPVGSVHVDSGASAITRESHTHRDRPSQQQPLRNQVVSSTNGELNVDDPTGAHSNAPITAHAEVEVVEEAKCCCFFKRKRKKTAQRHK
# T26 sequence (Q99640 whole entry): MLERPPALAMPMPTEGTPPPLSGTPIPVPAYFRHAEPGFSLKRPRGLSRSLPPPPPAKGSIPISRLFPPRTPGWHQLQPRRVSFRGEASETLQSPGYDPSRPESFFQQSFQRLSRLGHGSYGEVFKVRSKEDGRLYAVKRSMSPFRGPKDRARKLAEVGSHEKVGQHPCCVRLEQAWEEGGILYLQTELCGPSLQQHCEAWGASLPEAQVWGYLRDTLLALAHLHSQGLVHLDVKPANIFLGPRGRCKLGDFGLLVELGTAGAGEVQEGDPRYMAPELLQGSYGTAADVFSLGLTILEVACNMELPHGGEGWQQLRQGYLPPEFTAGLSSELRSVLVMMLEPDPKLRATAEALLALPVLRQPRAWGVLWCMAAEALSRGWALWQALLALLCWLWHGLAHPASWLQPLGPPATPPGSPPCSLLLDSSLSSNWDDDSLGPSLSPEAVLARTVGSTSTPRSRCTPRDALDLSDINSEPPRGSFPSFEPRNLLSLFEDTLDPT
# T24 sequence (Q15139 whole entry): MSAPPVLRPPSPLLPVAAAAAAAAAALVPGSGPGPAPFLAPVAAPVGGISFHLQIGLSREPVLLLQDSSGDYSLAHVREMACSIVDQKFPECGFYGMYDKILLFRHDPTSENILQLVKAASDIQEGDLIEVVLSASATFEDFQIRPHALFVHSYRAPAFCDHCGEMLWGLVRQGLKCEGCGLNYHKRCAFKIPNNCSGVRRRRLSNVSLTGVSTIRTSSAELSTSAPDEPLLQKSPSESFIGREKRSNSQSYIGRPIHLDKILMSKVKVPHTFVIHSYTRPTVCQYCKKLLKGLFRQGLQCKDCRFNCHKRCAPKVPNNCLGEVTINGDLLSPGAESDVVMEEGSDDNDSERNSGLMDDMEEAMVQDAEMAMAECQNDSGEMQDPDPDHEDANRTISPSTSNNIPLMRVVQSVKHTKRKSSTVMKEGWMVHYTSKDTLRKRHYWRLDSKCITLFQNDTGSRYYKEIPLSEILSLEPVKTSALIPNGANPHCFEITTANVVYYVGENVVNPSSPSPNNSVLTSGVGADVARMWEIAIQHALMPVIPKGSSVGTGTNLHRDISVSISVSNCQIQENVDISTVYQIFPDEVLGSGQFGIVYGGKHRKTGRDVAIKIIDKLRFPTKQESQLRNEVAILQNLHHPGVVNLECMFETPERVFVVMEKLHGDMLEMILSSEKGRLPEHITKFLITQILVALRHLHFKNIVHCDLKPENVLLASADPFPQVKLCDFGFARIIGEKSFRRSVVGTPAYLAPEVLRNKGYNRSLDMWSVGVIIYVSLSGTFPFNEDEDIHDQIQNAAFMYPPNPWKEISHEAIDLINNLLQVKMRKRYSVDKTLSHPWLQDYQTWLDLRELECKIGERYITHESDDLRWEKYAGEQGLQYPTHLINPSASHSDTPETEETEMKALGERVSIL
# T23 sequence (P22612 whole entry): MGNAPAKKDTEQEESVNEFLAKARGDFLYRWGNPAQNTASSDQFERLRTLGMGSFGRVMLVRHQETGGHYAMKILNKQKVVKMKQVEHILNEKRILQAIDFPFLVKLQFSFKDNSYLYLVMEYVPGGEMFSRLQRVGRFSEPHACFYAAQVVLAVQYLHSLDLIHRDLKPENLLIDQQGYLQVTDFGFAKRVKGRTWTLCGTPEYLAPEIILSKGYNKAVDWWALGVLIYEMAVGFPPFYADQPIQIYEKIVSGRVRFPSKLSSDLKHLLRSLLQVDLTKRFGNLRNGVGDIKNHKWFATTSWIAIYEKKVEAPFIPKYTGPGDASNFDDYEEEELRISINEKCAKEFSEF
# T33 sequence (Q86UE8 whole entry): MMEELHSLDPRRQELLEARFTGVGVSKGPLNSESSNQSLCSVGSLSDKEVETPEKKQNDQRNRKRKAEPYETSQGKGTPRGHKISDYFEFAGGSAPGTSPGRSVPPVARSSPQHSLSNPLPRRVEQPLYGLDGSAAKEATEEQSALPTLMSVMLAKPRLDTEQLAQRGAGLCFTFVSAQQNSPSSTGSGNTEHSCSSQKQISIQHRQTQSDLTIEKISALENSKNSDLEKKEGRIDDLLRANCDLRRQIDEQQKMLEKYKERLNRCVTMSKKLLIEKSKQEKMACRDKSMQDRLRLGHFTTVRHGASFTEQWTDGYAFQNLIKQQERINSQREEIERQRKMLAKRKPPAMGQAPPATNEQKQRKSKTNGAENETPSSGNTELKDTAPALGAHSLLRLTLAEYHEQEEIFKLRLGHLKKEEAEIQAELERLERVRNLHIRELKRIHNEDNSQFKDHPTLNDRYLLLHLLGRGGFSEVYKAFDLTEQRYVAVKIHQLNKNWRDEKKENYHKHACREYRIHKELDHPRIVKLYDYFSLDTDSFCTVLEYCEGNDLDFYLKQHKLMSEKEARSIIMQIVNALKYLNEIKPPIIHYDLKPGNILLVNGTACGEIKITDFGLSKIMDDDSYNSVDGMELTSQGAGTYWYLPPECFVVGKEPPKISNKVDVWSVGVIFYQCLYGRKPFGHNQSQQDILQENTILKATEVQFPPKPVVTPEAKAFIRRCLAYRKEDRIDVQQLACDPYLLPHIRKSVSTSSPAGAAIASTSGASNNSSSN
# T5 sequence (Q9UQM7 whole entry): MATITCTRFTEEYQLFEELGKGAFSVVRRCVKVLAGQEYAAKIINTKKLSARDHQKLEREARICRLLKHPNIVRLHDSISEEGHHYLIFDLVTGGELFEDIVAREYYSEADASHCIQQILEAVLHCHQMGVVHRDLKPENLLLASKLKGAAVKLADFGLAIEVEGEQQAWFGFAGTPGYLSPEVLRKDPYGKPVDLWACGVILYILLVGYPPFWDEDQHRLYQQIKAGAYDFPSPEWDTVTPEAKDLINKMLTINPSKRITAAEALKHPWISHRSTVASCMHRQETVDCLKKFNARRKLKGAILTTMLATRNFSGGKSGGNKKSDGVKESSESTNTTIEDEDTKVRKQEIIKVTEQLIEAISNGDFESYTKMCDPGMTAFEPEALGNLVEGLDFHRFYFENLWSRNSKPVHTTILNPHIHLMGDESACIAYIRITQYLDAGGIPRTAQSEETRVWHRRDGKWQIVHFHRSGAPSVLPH
# T28 sequence (Q15349 whole entry): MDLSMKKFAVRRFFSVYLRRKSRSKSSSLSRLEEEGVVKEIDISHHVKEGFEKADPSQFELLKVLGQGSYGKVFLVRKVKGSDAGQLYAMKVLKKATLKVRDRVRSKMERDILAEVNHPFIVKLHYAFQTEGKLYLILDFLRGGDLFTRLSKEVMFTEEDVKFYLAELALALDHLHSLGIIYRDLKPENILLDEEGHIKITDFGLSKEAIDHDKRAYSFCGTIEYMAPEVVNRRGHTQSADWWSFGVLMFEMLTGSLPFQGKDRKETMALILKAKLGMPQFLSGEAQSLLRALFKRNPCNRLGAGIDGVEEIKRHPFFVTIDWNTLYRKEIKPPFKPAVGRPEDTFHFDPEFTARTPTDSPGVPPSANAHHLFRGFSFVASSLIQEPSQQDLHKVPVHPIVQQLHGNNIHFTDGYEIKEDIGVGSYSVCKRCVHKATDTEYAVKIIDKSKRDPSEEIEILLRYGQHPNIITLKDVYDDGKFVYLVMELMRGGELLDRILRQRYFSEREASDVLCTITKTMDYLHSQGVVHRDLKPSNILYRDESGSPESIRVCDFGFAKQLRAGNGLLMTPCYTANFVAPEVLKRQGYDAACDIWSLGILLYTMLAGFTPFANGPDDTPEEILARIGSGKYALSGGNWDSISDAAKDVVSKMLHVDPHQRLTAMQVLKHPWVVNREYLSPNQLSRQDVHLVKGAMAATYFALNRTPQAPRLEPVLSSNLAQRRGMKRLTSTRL
# T19 sequence (Q9HC98 whole entry): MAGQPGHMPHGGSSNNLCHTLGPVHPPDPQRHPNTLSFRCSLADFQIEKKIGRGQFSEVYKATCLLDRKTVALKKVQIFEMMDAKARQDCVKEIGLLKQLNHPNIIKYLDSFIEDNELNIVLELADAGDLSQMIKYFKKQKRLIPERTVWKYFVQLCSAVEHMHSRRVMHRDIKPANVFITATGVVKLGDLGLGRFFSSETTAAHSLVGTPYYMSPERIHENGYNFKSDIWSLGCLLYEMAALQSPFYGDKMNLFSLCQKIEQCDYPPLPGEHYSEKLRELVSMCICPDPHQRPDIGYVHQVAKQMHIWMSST
compound,measurement,setting,value
Cc1ccc(NC(=O)c2ccc(CN3CCN(C)CC3)c(C(F)(F)F)c2)cc1-c1cnc2sc(N)nc2c1 [6r],inhibition at 1 µM,AKT3,13.6%
same,inhibition at 1 µM,ASK1/MAP3K5,0%
same,inhibition at 1 µM,BRAF,97.4%
same,inhibition at 1 µM,BRK,37.5%
same,inhibition at 1 µM,CAMK2a,16%
same,inhibition at 1 µM,CAMK2b,0%
same,inhibition at 1 µM,CK1G3,32%
same,inhibition at 1 µM,CK1g1,50.5%
same,inhibition at 1 µM,DYRK1/DYRK1A,17.4%
same,inhibition at 1 µM,ERBB4/HER4,73.9%
same,inhibition at 1 µM,FAK/PTK2,7.8%
same,inhibition at 1 µM,FES/FPS,39.7%
same,inhibition at 1 µM,FYN,89%
same,inhibition at 1 µM,IRR/INSRR,0%
same,inhibition at 1 µM,JAK2,2%
same,inhibition at 1 µM,MKK7,7.3%
same,inhibition at 1 µM,MSK1/RPS6KA5,0%
same,inhibition at 1 µM,NEK3,0%
same,inhibition at 1 µM,NEK6,1%
same,inhibition at 1 µM,P38b/MAPK11,77.7%
same,inhibition at 1 µM,PASK,4.6%
same,inhibition at 1 µM,PKAcb,0%
same,inhibition at 1 µM,PKAcg,29.2%
same,inhibition at 1 µM,PKCmu/PRKD1,15.9%
same,inhibition at 1 µM,PKG2/PRKG2,9.1%
same,inhibition at 1 µM,PKMYT1,10%
same,inhibition at 1 µM,PLK3,4.8%
same,inhibition at 1 µM,RSK3,5.4%
same,inhibition at 1 µM,SIK3,0%
same,inhibition at 1 µM,STK21/CIT,5.6%
same,inhibition at 1 µM,TGFBR2,0%
same,inhibition at 1 µM,TIE2/TEK,24.4%
same,inhibition at 1 µM,TLK2,0%
same,inhibition at 1 µM,TYK1/LTK,1%
same,inhibition at 1 µM,TYK2,7.8%
same,inhibition at 1 µM,ULK2,0%
same,inhibition at 1 µM,WNK2,8.7%
same,inhibition at 1 µM,YES/YES1,77%
same,inhibition at 1 µM,ZAK/MLTK,50%
